Laboratory results from ChEMBL document CHEMBL1131785, “Design and synthesis of amidino-tyrosine derivatives as non-peptide fibrinogen receptor antagonists” (Bioorg Med Chem Lett, 1999).

species on record: Homo sapiens; assay: Inhibitory activity against adenosine diphosphate (ADP)-induced platelet aggregation; type: functional, organism-based

Row | Compound | IC50 [nM]
1 | N=C(N)c1ccc(OCCCOc2ccc(C[C@H](NC(=O)c3ccccc3)C(=O)O)cc2)cc1 | > 1000
2 | N=C(N)c1ccc(OCCOc2ccc(C[C@H](NC(=O)c3ccccc3)C(=O)O)cc2)cc1 | 740
3 | N=C(N)c1ccc(OCCCCOc2ccc(C[C@H](NC(=O)c3ccccc3)C(=O)O)cc2)cc1 | > 1000
4 | N=C(N)c1ccc(OCCOc2ccc(C[C@H](NC(=O)c3ccco3)C(=O)O)cc2)cc1 | 710

Further lines, results first:

Row | IC50 [nM] | Compound
5 | 250 | Cc1ccc(C(=O)N[C@@H](Cc2ccc(OCC(=O)Nc3ccc(C(=N)N)cc3)cc2)C(=O)O)cc1
6 | 610 | Cc1ccccc1OCC(=O)N[C@@H](Cc1ccc(OCC(=O)Nc2ccc(C(=N)N)cc2)cc1)C(=O)O
7 | 270 | N=C(N)c1ccc(NC(=O)COc2ccc(C[C@H](NC(=O)c3ccccc3)C(=O)O)cc2)cc1
8 | 510 | N=C(N)c1ccc(NC(=O)COc2ccc(C[C@H](NC(=O)c3ccc4ccccc4c3)C(=O)O)cc2)cc1
